Laboratory results taken from patent US10683272B2 (THE JOHNS HOPKINS UNIVERSITY, priority 2014, dated 2020).

Tests used:
[1] = tested on: PSMA+ PC-3 PIP and PSMA− PC-3 flu tumors; test: small animal PET-CT imaging; type: in vivo, NOD/SCID mice; settings: PET-CT
Protocol: Mice (n=3 for ^86Y-4 or ^86Y-6 and n=2 for ^86Y-5) were injected via the tail vein with 3.33-6.21 MBq (90-168 μCi) of radiotracer formulated in 100 μL of saline at pH ˜7. […] At different time points, anesthetized individual mice were placed in the prone position on the scanner gantry and secured with medical tape while the anesthesia flow rate was increased to 0.8 L/min. Images were reconstructed using the FORE/2D-OSEM method (two iterations, 16 subsets) and included correction for radioactive decay, scanner dead time, and scattered radiation. Partial volume correction (PVC) was not performed. After each PET scan, a CT scan was acquired for anatomic co-registration. To facilitate PET and CT image co-registration, a special animal bed was employed which fits both the PET and CT scanners. The animals were under anesthesia and immobilized when moving between scanners as well as during both scans. The reconstructed PET and CT images were then manually co-registered through rigid transformation, by aligning natural landmarks (such as the animal limbs and the bed contour) using the AMIDE software (from sourceforge.net/amide).
Dynamic, whole-body PET and CT images were acquired on an eXplore VISTA small-animal PET (GE Healthcare, Little Chalfont, Buckinghamshire, UK) and an X-SPECT small SPECT/CT system (Gamma Medica Ideas, Northridge, Calif.), respectively.

[2] = baboon PET imaging and pharmacokinetics; type: in vivo, Papio anubis (baboon)
From the text: A male Papio anubis (8 y, 27.1 kg) was used to study the biodistribution of ^86Y-6. The baboon was positioned supine during image acquisition. For attenuation correction a low-dose CT image was acquired immediately before the first and last PET images. PET and CT images were co-registered across time points using a Hermes workstation (Hermes Medical Solutions, Greenville, S.C.). Fourteen source organ contours were delineated on the CT with the aid of fused PET/CT images. Decay-corrected mean activity concentrations (Bq/g) were extracted for each source organ from the PET images. Contours were drawn on the PET images of the kidneys, renal cortices, and prostate. The decay-corrected total activity per organ quantified within the PET images had nearly one-to-one correspondence with the administered radioactivity for the first six time points (1 h or less), which confirmed that the administered radioactivity was fully accounted for on the PET images, after which the total amount was less than the administered amount due to voiding. The total amount of radioactivity quantified in each of the PET images was used to obtain the whole-body retention kinetics.
Nine static PET images were acquired at 5, 10, 15, 20, 35 min, 1, 2, 3.5 and 23 h after intravenous administration of 80.7 MBq (2.2 mCi) of ^86Y-6 as a bolus. Images were acquired in 2D mode on a Discovery Rx VCT scanner (GE Healthcare).
For each time-point, the activity concentration (in Bq/cm^3) was measured in each of the 14 delineated organs and multiplied by the organ volume to obtain the total activity per time point per organ. The measured values were then decay-corrected and divided by the baboon organ mass, determined by the CT density and volume from the drawn contours, and the injected radioactivity to obtain the fraction of initial radioactivity per gram (FIA/g) for each time point and each organ. The baboon FIA/g values were then converted to human FIA (per organ) using the following equation (Schwartz et al., 2011; Woodard et al., 1975): […]
That approach assumes that the concentration of activity in a particular tissue relative to the overall concentration in the whole body is preserved across species (i.e., organ concentration/total body concentration is the same for baboon and man). The resulting human FIA values were plotted as a function of time (nine data points) for each organ and fit to a bi-exponential expression: FIA(t)=A1.e^−(λ1^bio^.t)+A2.e^−(Δ2^bio^.t) (2)

[3] = bi-exponential fit, listed as [^86Y]6
[4] = whole-body retention kinetics fit

## O=C([O-])CN1CCN(CC(=O)[O-])CCN(CC(=O)[O-])C(Cc2ccc(NC(=S)NCCCCNC(=O)CCCCCCC(=O)NCCCC[C@H](NC(=O)N[C@@H](CCC(=O)O)C(=O)O)C(=O)O)cc2)CN(CC(=O)[O-])CC1.[86Y+3] (stereo partly shown) [^86Y-6]
[1]
  earliest time of clear delineation of PSMA+ PC-3 PIP tumor: 15 min
[2]; baboon
  percent of kidney radioactivity cleared in the rapid phase: Sixty-eight
  percent of renal cortex radioactivity cleared in the rapid phase: 66%
[2]; baboon, about 25 min post-injection
  highest uptake in kidneys: 8 % ID/g
[2]; bi-exponential fit
  Brain, biological half-life of A1: 0.71 h
  Brain, biological half-life of A2: 8.71 h
  Brain, fitted parameter A1: 0.53 % ID
  Brain, fitted parameter A2: 0.11 % ID
  Heart, biological half-life of A1: 0.29 h
  Heart, biological half-life of A2: 6.49 h
  Heart, fitted parameter A1: 1.55 % ID
  Heart, fitted parameter A2: 0.29 % ID
  Kidneys, biological half-life of A1: 0.84 h
  Kidneys, biological half-life of A2: 16.6 h
  Kidneys, fitted parameter A1: 6.36 % ID
  Kidneys, fitted parameter A2: 2.98 % ID
  Large intestine, biological half-life of A1: 0.25 h
  Large intestine, biological half-life of A2: 5.97 h
  Large intestine, fitted parameter A1: 0.45 % ID
  Large intestine, fitted parameter A2: 0.30 % ID
  Liver, biological half-life of A1: 0.38 h
  Liver, biological half-life of A2: 7.71 h
  Liver, fitted parameter A1: 4.77 % ID
  Liver, fitted parameter A2: 1.52 % ID
  Lungs, biological half-life of A1: 0.42 h
  Lungs, biological half-life of A2: 6.29 h
  Lungs, fitted parameter A1: 2.78 % ID
  Lungs, fitted parameter A2: 1.27 % ID
  Muscle, biological half-life of A1: 1.98 h
  Muscle, biological half-life of A2: 69.31 h
  Muscle, fitted parameter A1: 14.98 % ID
  Muscle, fitted parameter A2: 0.56 % ID
  Pancreas, biological half-life of A1: 0.66 h
  Pancreas, biological half-life of A2: 10.60 h
  Pancreas, fitted parameter A1: 0.24 % ID
  Pancreas, fitted parameter A2: 0.05 % ID
  Prostate, biological half-life of A1: 0.67 h
  Prostate, biological half-life of A2: 5.58 h
  Prostate, fitted parameter A1: 0.02 % ID
  Prostate, fitted parameter A2: 0.02 % ID
  Renal cortex, biological half-life of A1: 1.1 h
  Renal cortex, biological half-life of A2: about 19 h
  Renal cortex, fitted parameter A1: 4.23 % ID
  Renal cortex, fitted parameter A2: 2.16 % ID
  Salivary glands, biological half-life of A1: 1.56 h
  Salivary glands, biological half-life of A2: 4.47 h
  Salivary glands, fitted parameter A1: 0.30 % ID
  Salivary glands, fitted parameter A2: 0.08 % ID
  Small intestine, biological half-life of A1: 0.26 h
  Small intestine, biological half-life of A2: 10.17 h
  Small intestine, fitted parameter A1: 0.24 % ID
  Small intestine, fitted parameter A2: 0.10 % ID
  Spleen, biological half-life of A1: 1.49 h
  Spleen, biological half-life of A2: 18.74 h
  Spleen, fitted parameter A1: 0.12 % ID
  Spleen, fitted parameter A2: 0.04 % ID
  Stomach, biological half-life of A1: 0.46 h
  Stomach, biological half-life of A2: 6.14 h
  Stomach, fitted parameter A1: 0.15 % ID
  Stomach, fitted parameter A2: 0.09 % ID
[2]; [3]
  Kidneys, biological half-life of A2: 16.62 h
  Renal cortex, biological half-life of A2: 19.19 h
[2]; [4]
  WB retention, biological half-life of A1: 5.62 h
  WB retention, fitted parameter A1: 100.00 % ID
